ChEMBL document CHEMBL1140535, “Synthesis and evaluation of substituted benzoisoquinolinones as potent inhibitors of Chk1 kinase” (Bioorg Med Chem Lett, 2007)
Active and inactive are the calls of the source. The calls are words filed in the database; no cut-off is given here.

How the values were obtained:
NCI-H1299 = assay: Inhibition of camptothecin induced mitotic arrest in human NCI-H1299 cells after 18 hrs; assay type: functional, cell-based; details: NCI-H1299, 18 h
[1] = target: T1, Serine/threonine-protein kinase Chk1 (Homo sapiens, UniProt O14757); assay: Inhibition of human Chk1 expressed in baculovirus by time-resolved fluorescence assay
T1 sequence (O14757 whole entry): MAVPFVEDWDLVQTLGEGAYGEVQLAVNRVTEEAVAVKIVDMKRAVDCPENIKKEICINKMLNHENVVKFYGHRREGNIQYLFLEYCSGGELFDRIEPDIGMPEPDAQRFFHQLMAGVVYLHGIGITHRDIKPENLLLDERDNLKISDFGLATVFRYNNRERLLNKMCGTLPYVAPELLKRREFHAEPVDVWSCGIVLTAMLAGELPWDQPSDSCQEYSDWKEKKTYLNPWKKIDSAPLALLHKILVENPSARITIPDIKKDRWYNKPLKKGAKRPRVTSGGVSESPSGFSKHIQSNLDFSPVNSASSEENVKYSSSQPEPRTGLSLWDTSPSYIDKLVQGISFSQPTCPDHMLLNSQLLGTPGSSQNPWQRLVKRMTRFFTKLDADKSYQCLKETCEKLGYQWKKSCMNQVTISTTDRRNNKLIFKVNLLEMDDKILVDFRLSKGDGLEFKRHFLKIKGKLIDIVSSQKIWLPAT

HT-29 [2] = assay: Effect on apoptosis in HT29 cells assessed as increase in caspase 3 activation after 24 hrs; assay type: functional, cell-based; details: Homo sapiens
HT-29 [3] = assay: Effect on apoptosis in HT29 cells assessed as increase in camptothecin induced caspase 3 activation after 24 hrs; assay type: functional, cell-based; details: Homo sapiens

Row | EC50 (NCI-H1299) [nM] | IC50 [1] [nM] | SMILES | Activity (HT-29 [2]) | Activity (HT-29 [3])
1 | 230 | 2 | NCCCc1cc2c(-c3ccccc3O)c[nH]c(=O)c2c2cc(-c3cn[nH]c3)ccc12 |  | 
2 | 1080 | 6.5 | NCCCc1cc2cc[nH]c(=O)c2c2cc(-c3ccc(CN)cc3)ccc12 |  | 
3 |  | 610 | O=c1[nH]ccc2c3[nH]cnc3c3ccc(F)cc3c12 |  | 
4 | 370 | 2.6 | NCCCc1cc2c(-c3ccccc3F)c[nH]c(=O)c2c2cc(-c3cn[nH]c3)ccc12 |  | 
5 |  | 44 | CNCCc1cc2cc[nH]c(=O)c2c2cc(Br)ccc12 |  | 
6 | 1050 | 11.5 | NCCCc1cc2c(-c3cccc(Cl)c3)c[nH]c(=O)c2c2cc(-c3cn[nH]c3)ccc12 |  | 
7 |  | 440 | O=c1[nH]ccc2cc(CO)c3ccc(Br)cc3c12 |  | 
8 |  | 360 | COC(=O)c1cc2cc[nH]c(=O)c2c2cc(Cl)ccc12 |  | 
9 | 44 | 2.4 | NCCCc1cc2cc[nH]c(=O)c2c2cc(-c3ccc[nH]3)ccc12 |  | 
10 | 100 | 2.5 | NCCc1cc2cc[nH]c(=O)c2c2cc(-c3ccn[nH]3)ccc12 |  | 
11 |  | 780 | O=c1[nH]ccc2cc(CCO)c3ccc(Br)cc3c12 |  | 
12 | 67 | 1 | NCCCc1cc2c(-c3cccc(O)c3)c[nH]c(=O)c2c2cc(-c3cn[nH]c3)ccc12 |  | 
13 | 957 | 9.2 | Cn1cc(-c2ccc3c(CCCN)cc4cc[nH]c(=O)c4c3c2)cn1 |  | 
14 |  | 1060 | N#Cc1cc2cc[nH]c(=O)c2c2cc(Cl)ccc12 |  | 
15 | 300 | 3.7 | NCCCc1cc2c(-c3cccc(F)c3)c[nH]c(=O)c2c2cc(-c3cn[nH]c3)ccc12 |  | 
16 | 140 | 2.3 | NCCCc1cc2c(Br)c[nH]c(=O)c2c2cc(-c3cn[nH]c3)ccc12 |  | 
17 | > 10000 | 11 | NCCCc1cc2cc[nH]c(=O)c2c2cc(C(N)=O)ccc12 |  | 
18 |  | 11 | NCCc1cc2cc[nH]c(=O)c2c2cc(Cl)ccc12 |  | 
19 |  | 510 | N#CCCc1cc2cc[nH]c(=O)c2c2cc(Cl)ccc12 |  | 
20 | 230 | 12 | NCCCc1cc2cc[nH]c(=O)c2c2cc(Cl)ccc12 |  | 
21 |  | 98 | NCCCc1cc2cc[nH]c(=O)c2c2ccccc12 |  | 
22 | 150 | 4.3 | NCCCc1cc2cc[nH]c(=O)c2c2cc(-c3ccn[nH]3)ccc12 |  | 

Row | EC50 (NCI-H1299) [nM] | IC50 [1] [nM] | SMILES | Activity (HT-29 [2]) | Activity (HT-29 [3])
23 | 79 | 3 | NCCc1cc2cc[nH]c(=O)c2c2cc(-c3cn[nH]c3)ccc12 | inactive | Active
24 | 64 | 3.5 | NCCCc1cc2cc[nH]c(=O)c2c2cc(-c3cn[nH]c3)ccc12 |  | 
25 | 130 | 0.8 | NCCCc1cc2c(-c3ccccc3Cl)c[nH]c(=O)c2c2cc(-c3cn[nH]c3)ccc12 |  | 
26 | 370 | 3.5 | NCCCc1cc2c(-c3ccc(F)cc3)c[nH]c(=O)c2c2cc(-c3cn[nH]c3)ccc12 |  | 
27 |  | 400 | N#Cc1cc2cc[nH]c(=O)c2c2cc(Br)ccc12 |  | 
28 | 310 | 17 | NCCCc1cc2cc[nH]c(=O)c2c2cc(Br)ccc12 |  | 
29 |  | 420 | N#CCCc1cc2cc[nH]c(=O)c2c2cc(Br)ccc12 |  | 
30 | 2200 | 25 | N#Cc1ccc2c(CCCN)cc3cc[nH]c(=O)c3c2c1 |  | 
31 | 47 | 0.3 | NCCCc1cc2c(-c3ccc(O)cc3)c[nH]c(=O)c2c2cc(-c3cn[nH]c3)ccc12 |  | 
32 |  | 580 | O=c1[nH]ccc2ccc3ccc(Cl)cc3c12 |  | 
33 | 320 | 1.2 | NCCCc1cc2c(-c3ccc(Cl)cc3)c[nH]c(=O)c2c2cc(-c3cn[nH]c3)ccc12 |  | 
34 |  | 110 | O=c1[nH]ccc2c3[nH]c(-c4cccnc4)nc3c3ccc(F)cc3c12 |  | 
35 | 14 | 0.5 | NCCc1cc2cc[nH]c(=O)c2c2cc(-c3ccc[nH]3)ccc12 |  | 
36 |  | 130 | CN(C)CCc1cc2cc[nH]c(=O)c2c2cc(Br)ccc12 |  | 
37 | 130 | 0.6 | NCCc1cc2cc[nH]c(=O)c2c2cc(-c3ccc(CN4CCOCC4)cc3)ccc12 |  | 
38 | 270 | 1.2 | NCCCc1cc2c(-c3ccc(Cl)cc3Cl)c[nH]c(=O)c2c2cc(-c3cn[nH]c3)ccc12 |  | 
39 |  | 1080 | O=c1[nH]ccc2c3[nH]c(-c4ccccc4)nc3c3ccc(F)cc3c12 |  | 
40 | 140 | 2 | NCCCc1cc2c(-c3ccccc3)c[nH]c(=O)c2c2cc(-c3cn[nH]c3)ccc12 |  | 
41 | 210 | 3.6 | C=Cc1c[nH]c(=O)c2c1cc(CCCN)c1ccc(-c3cn[nH]c3)cc12 |  | 
42 |  | 300 | COC(=O)c1cc2cc[nH]c(=O)c2c2cc(Br)ccc12 |  | 
43 | > 10000 | 2 | CN(C)CCNC(=O)c1ccc2c(CCCN)cc3cc[nH]c(=O)c3c2c1 |  | 
44 |  | 3 | NCCc1cc2cc[nH]c(=O)c2c2cc(Br)ccc12 |  | 
